These results are taken from article PMC8922281, “Synthesis and In Vitro Biological Evaluation of Quinolinyl Pyrimidines Targeting Type II NADH-Dehydrogenase (NDH-2)” (ACS Infectious Diseases, 2022).

The test system of data set [1] is Trypanosoma cruzi Tulahuen LacZ (clone C4). Briefly: Trypanosoma cruzi growth on MRC-5 cells (CPRG). The following applies: MRC5, 168 h, read-out: IC50 Trypanosoma cruzi.
Protocol: In vitro biology: Minimum inhibitory concentration (MIC) assays on parasites Synthesized compounds were tested against different parasite cell lines (T. brucei, T. cruzi, and P. falciparum K1) for the MIC determination.
Trypanosoma cruzi cells were maintained on MRC-5 human lung fibroblast cells. The assay was performed with 5% CO2 at 37 °C in a 96-well microtiter plate. Each well contains 10 µl compound dilution and 190 µl parasite/MRC-5 cell inoculum (10:1 parasites : cells). Parasite burdens were evaluated with addition of substrate CPRG (50 µl/well stock solution with 15.2mg CPRG + 250 µl Nonidet in 100 ml PBS). After 4h incubation, the absorbance change was measured spectrophotometrically at 540 nm at 37 °C. The res ults were presented as % growth, compared with non-infected cells (0% growth) and untreated-infected controls (100 % growth) after 7-day incubation, and the
The next data set has as its system P. falciparum K1. Briefly: Plasmodium falciparum K1 growth (Malstat). Format: cell-based. The following applies: reference compound, 72 h. Here is the method:
acceptor at a range of concentrations.
2.1.3. IC50 determination
Compounds were pre-incubated
IC50 is calculated. […] The […]
of PES (phenazine ethosulfate, 0.1 mg/ml) and NBT (Nitro Blue Tetrazolium Grade III, 2 mg/ml) in a new plate. The absorbance change was measured at 655nm. The results were shown as % reduction in parasitemia, compared to control wells with no treatment.
3. Trypanosoma brucei sample has 7*104 parasites/ml in the suspension. Cultured for 3 days, the growth of the cells was assessed fluorimetrically with the addition of resazurin in a microtiter plate. The fluorescence intensity was measured after 24h at 37 °C with the excitation wavelength at 550nm and the emission wavelength at 590nm. The results were presented as % reduction in parasite growth, compared to reference wells with no treatment, followed by IC50 calculation. Suramine was used as the reference compound […]
A compound with IC50 higher than 5 µM is classified as the […]
subsequently evaluated in a secondary assay, with broader concentration range, additional references, and other species.
IC50 values are shown in Table S1, followed by semi-quantitative activity scores, and indications for specificity. […]

Data set [2] relates to P. aeruginosa (PAO750 efflux-defective mutant, isogenic to PAO1). Briefly: microbe, parasite or virus in culture. Format: cell-based. The following applies: Pseudomonas aeruginosa, PAO1, read-out: MIC Pa efflux.
Data set [3] has as its system E. coli (ΔtolC efflux-defective mutant, isogenic to ATCC 25922). As to the kind of experiment: microbe, parasite or virus in culture. Format: cell-based. The following applies: Escherichia coli, ATCC25922, read-out: MIC Ec ΔtolC.
A further data set concerns the target MsNDH-2 (Mycolicibacterium smegmatis, UniProt A0QYD6). As to the kind of experiment: Inhibition of MsNDH-2 (NADH oxidation with menadione, absorbance at 340 nm). In kind it is biochemical, M. smegmatis.
Data set [4] has as its system M. tuberculosis strain H37Rv (ATCC 25618). Briefly: MIC on M. tuberculosis by resazurin reduction microplate assay (REMA). Format: cell-based. As to conditions: Mycobacterium tuberculosis. On the technique in general: The colour change of resazurin is a common sign of viable cells or microbes.
For data set [5], the system named is K. pneumonia (ATCC 13833, wild-type). Briefly: MIC on ESKAPE pathogens, K. pneumoniae.
Data set [6] has as its target T1, MtNDH-2 (Mycobacterium tuberculosis, UniProt P95160). On the set-up: method as in PMID 24900541. As to conditions: reported earlier; cited from earlier work.
The test system of data set [7] is E. coli (D22, lpxC mutant, drug-hypersensitive). Briefly: microbe, parasite or virus in culture. As to conditions: Escherichia coli, read-out: MIC Ec D22. Format: cell-based.
Data set [8] concerns E. coli (ATCC 25922, wild-type). As to the kind of experiment: MIC on ESKAPE pathogens, E. coli wild-type. In kind it is cell-based. The following applies: Escherichia coli, ATCC25922, read-out: MIC Ec WT.
In data set [9] the test system is A. baumannii (ATCC 19606, wild-type). As to the kind of experiment: MIC on ESKAPE pathogens, A. baumannii. As to conditions: Acinetobacter baumannii, ATCC19606; A. baumannii ATCC 19606, wild-type; read-out: MIC Ab WT. In kind it is cell-based.
Data set [10] concerns P. aeruginosa (PAO1, wild-type). As to the kind of experiment: MIC on ESKAPE pathogens, P. aeruginosa wild-type. Format: cell-based. As to conditions: Pseudomonas aeruginosa, PAO1, read-out: MIC Pa WT.
Data set [11] in a line: Cytotoxicity on the MRC-5 cell line (resazurin). Format: cell-based. As to conditions: human, MRC-5SV2 cells, MRC-5SV2, 3 days. The procedure, abridged:
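MRC-5SV2 cells, about 10^4 per well in Earl's MEM with 5% FCSi, were exposed to compounds for 3 days. Viability read fluorimetrically with resazurin (ex 550, em 590 nm) as % reduction versus untreated wells, giving CC50.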

For data set [12], the target named is T1, MtNDH-2. As to the kind of experiment: biochemical. On the set-up: species or system M. tuberculosis. As to conditions: MtNDH-2 IC50.
Data set [13] relates to S. aureus (ATCC 29213, wild-type). As to the kind of experiment: MIC on ESKAPE pathogens, S. aureus. As to conditions: Staphylococcus aureus, ATCC29213. Format: cell-based.
The subject of data set [14] is Trypanosoma brucei brucei Squib 427. As to the kind of experiment: Trypanosoma brucei growth (resazurin). In kind it is cell-based. As to conditions: reference compound. As for the experimental part: page 46: of PES (phenazine ethosulfate, 0.1 mg/ml) and NBT (Nitro Blue Tetrazolium Grade III, 2 mg/ml) in a new plate. The absorbance change was measured at 655nm. The results were shown as % reduction in parasitemia, compared to control wells with no treatment. […] A compound […] secondary screening. 3. Trypanosoma brucei sample has 7*104 parasites/ml in the suspension. Cultured for 3 days, the growth of the cells was assessed fluorimetrically with the addition of resazurin in a microtiter plate. The fluorescence intensity was measured after 24h at 37 °C with the excitation wavelength at 550nm and the emission wavelength at 590nm. The results were presented as % reduction in parasite growth, compared to reference wells with no treatment, followed by IC50 calculation. Suramine was used as the reference compound […] subsequently evaluated in a secondary assay, with broader concentration range, additional references, and other species. IC50 values are shown in Table S1, followed by semi-quantitative activity scores, and indications for specificity. […]

A further data set relates to HepG2 cells. As to conditions: human, 72 h.

In brackets after ≈: the same amount, converted by molar mass. Several values for one entry are separate records, joined by “and”; a condition that tells them apart may be missing. Equal values may be shown once. Read-outs that look alike come from different tables or passages of the source.

T1 sequence (P95160 2-463, added parts left off): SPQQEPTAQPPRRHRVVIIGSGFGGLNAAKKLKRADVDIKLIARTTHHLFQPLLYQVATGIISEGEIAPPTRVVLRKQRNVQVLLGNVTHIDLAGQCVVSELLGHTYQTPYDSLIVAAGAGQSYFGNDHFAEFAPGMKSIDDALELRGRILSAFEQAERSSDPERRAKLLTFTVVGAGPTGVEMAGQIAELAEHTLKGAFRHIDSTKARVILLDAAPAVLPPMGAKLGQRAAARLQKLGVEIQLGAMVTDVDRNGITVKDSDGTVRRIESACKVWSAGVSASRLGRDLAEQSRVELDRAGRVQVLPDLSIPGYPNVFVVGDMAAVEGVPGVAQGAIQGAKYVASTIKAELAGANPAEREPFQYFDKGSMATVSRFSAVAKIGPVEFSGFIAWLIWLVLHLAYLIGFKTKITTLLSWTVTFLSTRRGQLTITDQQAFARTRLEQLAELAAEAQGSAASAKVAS
MsNDH-2, sequence (A0QYD6 1-457): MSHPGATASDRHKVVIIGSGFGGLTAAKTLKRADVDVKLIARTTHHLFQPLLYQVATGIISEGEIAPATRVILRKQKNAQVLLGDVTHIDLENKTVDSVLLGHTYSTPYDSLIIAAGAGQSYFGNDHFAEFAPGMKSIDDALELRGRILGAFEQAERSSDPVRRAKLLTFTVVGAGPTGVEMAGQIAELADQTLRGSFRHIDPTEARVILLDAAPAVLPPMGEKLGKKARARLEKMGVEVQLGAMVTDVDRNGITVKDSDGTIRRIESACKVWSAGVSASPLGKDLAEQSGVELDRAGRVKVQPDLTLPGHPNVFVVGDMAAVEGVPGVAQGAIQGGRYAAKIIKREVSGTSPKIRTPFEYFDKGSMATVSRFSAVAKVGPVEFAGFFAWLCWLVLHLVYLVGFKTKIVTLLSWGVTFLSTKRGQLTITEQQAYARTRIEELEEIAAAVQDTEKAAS

Broadly, the IC50 is the point on the concentration scale where inhibition reaches its midpoint. With `O=C(Cn1ccnc1[N+](=O)[O-])NCc1ccccc1` [Benznidazole], the IC50 in data set [1] worked out at 1700 nM.
Regarding `CCN(CC)CCCC(C)Nc1ccnc2cc(Cl)ccc12` (stereo not drawn) [Chloroquine], half-maximal inhibition in the data set on P. falciparum K1 (IC50) required 210 nM.
Turning to `Cc1cccc(-c2cc(Nc3ccc4nc(-c5ccc(F)cc5)cc(N)c4c3)nc(N)n2)c1` [Compound 1, N^6-(2-Amino-6-m-tolylpyrimidin-4-yl)-2-(4-fluorophenyl)quinoline-4,6-diamine, reference compound], the MIC in [2] was 128 µg/mL (≈ 293 µM); in data set [3], 8 µg/mL (≈ 18.3 µM); in [4] (M. tuberculosis H37Rv, read-out: MIC Mtb) it was 2.6 µg/mL; in data set [7] it was 4 µg/mL (≈ 9.16 µM); in data set [8], over 128 µg/mL; in data set [9] it was 64 µg/mL (≈ 147 µM). For the same compound, the MIC was over 128 µg/mL in [10] and 1 µg/mL (≈ 2.29 µM) in data set [13]. The IC50 on MsNDH-2 (95% confidence interval in parentheses, 50 nM enzyme, 50 μM menadione, >100: no significant inhibition at 100 μM) is 1600 nM; on MsNDH-2 (same IC50 given in μg/mL to assist comparisons with MICs), 1600 nM; at MtNDH-2 [6], 96 nM; against MtNDH-2 [12], 26 nM and 22.9 nM. Moreover, the “MIC Kp WT” value in data set [5] was over 128 µg/mL. Besides, the IC50 at 3 days in data set [11] (resazurin) was determined as 1300 nM; in data set [11] (value in parentheses) it was 0.6 µg/mL.
As to `Cc1ccc(C(=O)Nc2ccc(S(=O)(=O)O)c3cc(S(=O)(=O)O)cc(S(=O)(=O)O)c23)cc1NC(=O)c1cccc(NC(=O)Nc2cccc(C(=O)Nc3cc(C(=O)Nc4ccc(S(=O)(=O)O)c5cc(S(=O)(=O)O)cc(S(=O)(=O)O)c45)ccc3C)c2)c1` [Suramine], in data set [14], it took 40 nM to reach half-maximal inhibition (IC50).
Turning to `COc1nc2ccc(Br)cc2cc1[C@@H](c1ccccc1)[C@@](O)(CCN(C)C)c1cccc2ccccc12` [bedaquiline, reference compound], the MIC in [4] (H37Rv, reference antitubercular agents, read-out: MIC M. tuberculosis) was found to be 0.37 µM. Moreover, in the data set with HepG2 cells, the “cytotoxicity HepG2 TD50” value is 50 µM and the “cytotoxicity HepG2 TD99” value is at least 100 µM.
